Read-outs that look alike come from different tables or passages of the source.
Columns and labels:
[1] = test system: all cancer cell lines (A2780, A2780cis, G361, A549, HeLa, LNCaP, THP-1); test: Antiproliferative effect of starting compounds on all cancer cell lines; conditions: read-out: IC50, in vitro cytotoxicity of starting compounds on all cancer cell lines, 24 h
[2] = test system: TNF-α secretion, LPS-stimulated THP-1 cells; test: LPS-induced TNF-α secretion in THP-1 macrophages (ELISA); assay type: cell-based, human; conditions: 0.2 μM; for increase of TNF-α secretion, factor in comparison to vehicle: LPS-activated macrophages, 24 h; for TNF-α secretion: 1 h pre-treatment, then LPS 24 h
Procedure: (§1) To determine the influence of the tested complexes on the TNF-α and IL-1β secretions, the human monocytic leukemia cell line THP-1 was used. The cells were cultivated at 37°C in the RPMI 1640 medium supplemented with 2 mM L-glutamine, 10% fetal bovine serum (FBS), 100 U/mL of penicillin and 100 μg/mL of streptomycin in a humidified atmosphere containing 5% CO2. The stabilized cells (3rd–20th passage) were split into microtitration plates to get a concentration of 100 000 cells/mL and the differentiation to macrophages was induced by a phorbol myristate acetate (PMA) as we described previously.
(§2) Differentiated macrophages were pretreated for 1 h with 0.2 μM solutions of the tested complexes, prednisone or CuSO4 · 5 H2O dissolved in DMSO (the final DMSO concentration was 0.1%) and with 0.1% DMSO solution itself (the experimental group called vehicle); the given concentrations of the tested compounds lack the cytotoxic effect. The inflammatory response was triggered by adding 1.0 μg/mL lipopolysaccharide (LPS) dissolved in water to pretreated macrophages, control cells were without the LPS treatment. Each experiment was repeated three-times.
(§3) Macrophages pretreated with the tested compounds for 1 h were incubated with LPS for next 24 h. After this period, the medium was collected and the concentration of TNF-α and IL-1β was measured by Instant ELISA kit (eBioscience, Vienna, Austria) according to the manufacturer’s manual.

[3] = test system: IL-1β secretion, LPS-stimulated THP-1 cells; test: LPS-induced IL-1β secretion in THP-1 macrophages (ELISA); assay type: cell-based, human; conditions: 0.2 μM; for increase of IL-1β secretion, factor: LPS-activated cells, 24 h; for IL-1β secretion: 1 h pre-treatment, then LPS 24 h
Procedure: as §1, §2, §3

[4] = test system: glucocorticoid receptor (GR) transcriptional activity; conditions: 24 h; complexes 10 nM – 5 μM; DEX 10 pM – 100 nM
[5] = test system: aryl hydrocarbon receptor (AhR) transcriptional activity; test: AhR gene reporter assay in AZ-AhR cells; assay type: cell-based, human; conditions: 24 h; complexes 10 nM – 5 μM; TCDD 10 pM – 10 μM
[6] = test system: A2780cis cisplatin-resistant ovarian carcinoma cells; test: In vitro cytotoxicity, MTT assay, A2780cis; assay type: cell-based, human; conditions: for IC50: 24 h, MTT, read-out: IC50 ± SD, A2780cis; for IC50(A2780cis)/IC50(A2780) ratio (resistance factor): in comparison with cisplatin
Procedure: (§4) Figure S5. […] The cells were plated at 96-well dishes and cultured according manufacturer instructions. The tested compounds were applied to the cells for 24 h in concentrations ranging from 0.01 to 50 µM. The tested compounds were applied to the cells for 24 h. The cytotoxicity was assessed by the MTT test, measurements were performed in triplicate, and each cytotoxicity experiment was repeated three times. The data are expressed as IC50 ± SD (μM).

[7] = test system: LNCaP androgen-sensitive prostate adenocarcinoma cells; test: In vitro cytotoxicity, MTT assay, LNCaP; assay type: cell-based, human; conditions: 24 h, read-out: IC50 ± SD, LNCaP
Procedure: as §4, with “S6.” for “S5.”

[8] = test system: HeLa cervix epitheloid carcinoma cells; test: In vitro cytotoxicity, MTT assay, HeLa; assay type: cell-based, human; conditions: 24 h, read-out: IC50 ± SD, HeLa
Procedure: as §4, with “S2.” for “S5.”

[9] = test system: THP-1 monocytic leukemia cells; design: method as in PMID 15139770; conditions: cited from earlier work
[10] = test system: G361 malignant melanoma cells; test: In vitro cytotoxicity, MTT assay, G361; assay type: cell-based, human; conditions: 24 h, read-out: IC50 ± SD, G361
Procedure: as §4, with “S3.” for “S5.”

[11] = test system: A2780 ovarian carcinoma cells; test: In vitro cytotoxicity, MTT assay, A2780; assay type: cell-based, human; conditions: 24 h, read-out: IC50 ± SD, A2780
Procedure: as §4, with “S4.” for “S5.”

[12] = test system: A549 lung carcinoma cells; test: In vitro cytotoxicity, MTT assay, A549; assay type: cell-based, human; conditions: 24 h, read-out: IC50 ± SD, A549
Procedure: as §4, with “S1.” for “S5.”

[13] = test system: primary human hepatocytes (HH1); test: Toxicity to primary human hepatocytes; assay type: cell-based; conditions: 24 h, MTT; read-out: IC50 ± SD, HH1 (toxicity to primary human hepatocytes)
[14] = test system: THP-1 monocytic leukemia cells; test: In vitro cytotoxicity, WST-1 test, THP-1; assay type: cell-based, human; conditions: 24 h, WST-1, serum-free medium; read-out: IC50 ± SD, THP-1
Procedure: as §4, with “S7.” for “S5.”

Structure (SMILES)	increase of TNF-α secretion, factor in comparison to vehicle [2]	increase of IL-1β secretion, factor [3]	IC50 [6]	IC50 [7]	IC50 [8]	IC50 [10]	IC50 [11]	IC50 [12]	IC50 [13]	IC50 [14]	other results
F[B-](F)(F)F.F[B-](F)(F)F.[Cu+2] [Cu(BF4)2 · H2O]											IC50 [1]: > 50 µM
O=[N+]([O-])[O-].O=[N+]([O-])[O-].[Cu+2] [Cu(NO3)2 · 3H2O]											IC50 [1]: > 50 µM
O.O.O.O.O.O=S(=O)([O-])[O-].[Cu+2] [CuSO4·5H2O, reference compound]	1.4	~1.6									
C[C@@H]1C[C@H]2[C@@H]3CCC4=CC(=O)C=C[C@]4(C)[C@@]3(F)[C@@H](O)C[C@]2(C)[C@@]1(O)C(=O)CO [DEX, dexamethasone]											luciferase activity in AZ-GR cells [4]: strongly, dose-dependently induced
O=c1c(O)c(-c2ccccc2)[nH]c2ccccc12 [Hqui, 2-phenyl-3-hydroxy-4(1H)-quinolinone]											IC50 ([1]; Homo sapiens): > 50 µM
Clc1cc2c(cc1Cl)Oc1cc(Cl)c(Cl)cc1O2 [TCDD, 2,3,7,8-tetrachlorodibenzo-p-dioxin]											luciferase activity in AZ-AhR cells [5]: strongly, dose-dependently induced
c1ccc(-c2ccnc3c2ccc2c(-c4ccccc4)ccnc23)cc1 [bphen, bathophenanthroline]											IC50 [1]: > 50 µM
N.N.[Cl][Pt][Cl] [cisplatin, reference compound]			27 ± 4.6 µM	3.8 ± 1.5 µM	10 ± 2.6 µM	3.4 ± 0.1 µM	12 ± 0.8 µM	25.8 ± 7.1 µM			IC50 [9]: 2 µM
O.O=[N+]([O-])[O-].O=c1c([O-])c(-c2ccccc2)[nH]c2ccccc12.[Cu+2].c1cnc2c(c1)ccc1cccnc12 [compound 1, [Cu(qui)(phen)]NO3 · H2O]	~ 1.25	practically no influence	0.83 ± 0.3 µM	2.4 ± 0.6 µM	2.9 ± 0.3 µM	0.82 ± 0.15 µM	0.65 ± 0.28 µM	2.5 ± 0.4 µM	> 10 µM	2 ± 0.1 µM	
F[B-](F)(F)F.O=c1c([O-])c(-c2ccccc2)[nH]c2ccccc12.[Cu+2].c1cnc2c(c1)ccc1cccnc12 [compound 2, [Cu(qui)(phen)]BF4]	~ 1.25	practically no influence	1.7 ± 0.6 µM	1.9 ± 0.6 µM	2.7 ± 0.6 µM	0.64 ± 0.2 µM	0.52 ± 0.1 µM	3.9 ± 1.2 µM	20.4 ± 1.2 µM	1.7 ± 0.2 µM	
Cc1cc2cccnc2c2ncccc12.O.O=[N+]([O-])[O-].O=c1c([O-])c(-c2ccccc2)[nH]c2ccccc12.[Cu+2] [compound 3, [Cu(qui)(mphen)]NO3 · H2O]	~ 1.25	practically no influence	0.78 ± 0.07 µM	2.1 ± 0.6 µM	2.6 ± 0.4 µM	0.53 ± 0.22 µM	0.38 ± 0.03 µM	2.5 ± 0.6 µM	> 10 µM	1.5 ± 0.3 µM	
Cc1cc2cccnc2c2ncccc12.F[B-](F)(F)F.O.O=c1c([O-])c(-c2ccccc2)[nH]c2ccccc12.[Cu+2] [compound 4, [Cu(qui)(mphen)]BF4 · H2O]	1.6	1.6	0.56 ± 0.15 µM	1.5 ± 0.6 µM	2.4 ± 1 µM	0.53 ± 0.09 µM	0.36 ± 0.05 µM	2.5 ± 0.6 µM	9.3 ± 0.6 µM	1.1 ± 0.4 µM	
O.O=[N+]([O-])[O-].O=c1c([O-])c(-c2ccccc2)[nH]c2ccccc12.[Cu+2].c1ccc(-c2ccnc3c2ccc2c(-c4ccccc4)ccnc23)cc1 [compound 5, [Cu(qui)(bphen)]NO3 · H2O]	1.8	6.9	0.73 ± 0.08 µM	0.74 ± 0.21 µM	1 ± 0.2 µM	0.96 ± 0.03 µM	0.66 ± 0.07 µM	1.7 ± 0.3 µM	3.6 ± 0.2 µM	0.57 ± 0.08 µM	IC50(A2780cis)/IC50(A2780) ratio (resistance factor) [6]: practically two times lower; TNF-α secretion [2]: 2873 ± 238 pg/mL; IL-1β secretion [3]: 1177 ± 128 pg/mL
F[B-](F)(F)F.O=c1c([O-])c(-c2ccccc2)[nH]c2ccccc12.[Cu+2].c1ccc(-c2ccnc3c2ccc2c(-c4ccccc4)ccnc23)cc1 [compound 6, [Cu(qui)(bphen)]BF4]	2	6.4	0.7 ± 0.2 µM	0.62 ± 0.08 µM	1.3 ± 0.4 µM	0.72 ± 0.06 µM	0.57 ± 0.11 µM	1.3 ± 0.4 µM	5.3 ± 0.3 µM	0.56 ± 0.1 µM	IC50(A2780cis)/IC50(A2780) ratio (resistance factor) [6]: practically two times lower; TNF-α secretion [2]: 3284 ± 139 pg/mL; IL-1β secretion [3]: 1087 ± 101 pg/mL
Cc1cc2cccnc2c2ncccc12 [mphen, 5-methyl-1,10-phenanthroline]											IC50 ([1]; Homo sapiens): > 50 µM
c1cnc2c(c1)ccc1cccnc12 [phen, 1,10-phenanthroline]											IC50 ([1]; Homo sapiens): > 50 µM
C[C@]12C=CC(=O)C=C1CC[C@@H]1[C@@H]2C(=O)C[C@@]2(C)[C@H]1CC[C@]2(O)C(=O)CO [prednisone, reference compound]											TNF-α secretion [2]: 1173 ± 85 pg/mL; IL-1β secretion [3]: 118.5 ± 4.8 pg/mL

Reference: PMC3556092, “Cellular responses induced by Cu(II) quinolinonato complexes in human tumor and hepatic cells” (Chemistry Central Journal, 2012)
